From patent US20220112464A1, “VASCULARIZED ORGANOID MODEL INCORPORATING ISOLATED HUMAN MICROVESSEL FRAGMENTS” (Advanced Solutions Life Sciences, LLC, priority 2020, published 2022)

Experiments:
microvessels = assay: Microvessel growth (vessel length) under different culture media, FIG. 13; format: cell-based, human; settings: medium or supplement used for microvessel culture
From the text: FIG. 13 is a graph depicting vessel length (mm) of organoids cultured under a variety of conditions (serum free+VEGF, 10% FBS, RPMI/B-27/VEGF, ADM, AMM, RPMI/B-27+IM, RMPI/B-27+Dex, RPMI/B-27+IBMX).

adipose-like organoids [1] = assay: Lipolysis assay (glycerol production), 3D organoids; format: cell-based, human; settings: 1 μM isoproterenol for 4 hours, organoids with and without microvessels
Description: A lipolysis assay was performed on 2D (after 24 days of 2D culture) and 3D cultures (after 17 days of 2D and 7 days of 3D culture), using a commercially available kit (Sigma). Samples were treated with 1 μM isoproterenol for 4 hours. For 2D cultures, supernatants were then mixed with the reaction solution and incubated according to manufacturer's instructions. For 3D cultures, organoids were homogenized in the supernatant after isoproterenol incubation using a plastic pestle, to release glycerol trapped inside the organoid. The homogenized sample was briefly centrifuged, and supernatants were used for the remainder of the manufacturer's protocol. Samples were read at 570 nm using a plate reader (BioTek Instruments). For 2D cultures, samples cultured in FBS were used as control samples that will not undergo lipolysis. For 3D samples, negative controls were not treated with isoproterenol.

adipose-like organoids [2] = assay: TNF-α challenge with RT-PCR of adipocyte markers; format: cell-based, human; settings: TNF-α treatment
Description: (§1) Adipose organoids were seeded and cultured as described above. After 7 days of culture, medium was changed from AMM to AMM supplemented with or without 50 ng/ml TNF-α (Peprotech). The following day, organoids were either flash frozen for PCR analysis, fixed for histology, or used for an IL-6 enzyme-linked immunosorbent assay (ELISA).
RNA was extracted from either 2D cultures or 3D organoids using a Qiagen RNeasy Plus Micro kit following manufacturer's protocols. RNA was converted to cDNA with SuperScript™ IV VILO™ Master Mix (Fisher Scientific). cDNA was amplified with human primers (IDT Technologies) listed in Table 1. Primers for insulin receptor were designed using Primer3 software (NIH) and verified using BLAST database (NIH), with gene coding obtained from GenBank (NIH).
Real-time PCR was performed using a SYBER master mix (Fisher Scientific) and CFX96 Real Time System (Bio Rad). Adiponectin and PPAR-γ expression were normalized to GAPDH (IDT Technologies) and compared to either FBS treated controls (2D) or organoids without microvessels (3D). After RT-PCR, amplified cDNA was loaded into a 2% agarose gel and run at 90V. Gels were imaged for SYBER green on a gel scanner (Azure Biosystems).

adipose-like organoids [3] = assay: TNF-α challenge with IL-6 ELISA; format: cell-based, human; settings: 50 ng/ml TNF-α, approximately 24 hours, organoids with and without microvessels
Description: as §1
Organoids with and without microvessels and with or without TNF-α treatment were transferred with their supernatants to micro-centrifuge tubes and briefly homogenized with a plastic pestle. Samples were diluted and centrifuged for 2 minutes at 12,000 rcf to pellet remaining matrix and cell debris. An ELISA was performed with the supernatant following manufacturer instructions (R&D systems) to measure secreted interleukin-6 (IL-6) as a marker of adipocyte inflammation and dysfunction.

human microvessels = settings: 50 ng/ml VEGF in serum free medium, 6 days of culture, versus no VEGF

Compound: CC(C)Cn1c(=O)n(C)c(=O)c2[nH]cnc21 [IBMX, 3-isobutyl-1-methylxanthine]
- microvessel growth (microvessels): permanently impeded microvessel growth

Compound: CC(C)NCC(O)c1ccc(O)c(O)c1 (stereo not drawn) [isoproterenol]
- glycerol production in response to isoproterenol (adipose-like organoids [1]): produced glycerol

Compound: TNF-α
- adiponectin expression (adipose-like organoids [2]; organoids with microvessels): small but distinct downregulation
- adiponectin expression (adipose-like organoids [2]; organoids with no microvessels): changed minimally
- IL-6 secretion (adipose-like organoids [3]): dramatically increased IL-6 secretion

Compound: vascular endothelial growth factor [VEGF]
- vascular growth / vessel density of microvessels (human microvessels): significantly increased vascular growth
